The values below come from patent US11298569B2 (priority 2016, dated 2022).

In series [1] the test system is Cx3cr1-cre::Panx1^flx/flx mice. The series is described as follows: Naloxone-precipitated morphine withdrawal behaviours in mice. The note with it: for morphine withdrawal: morphine-dependent Panx1-expressing mice, 15 minutes prior to naloxone. In kind it is in vivo, mouse. Here is the method:
(§1) Control rats and mice received saline and were challenged with naloxone on day 5. […] Jumping, teeth chattering, wet-dog shakes, headshakes, and grooming behaviors were evaluated at 5-min intervals for a total test period of 30 minutes and a standardized score of 0 to 3 was assigned to each behavior. Allodynia, piloerection, salivation, ejaculation, and tremorsitwitchina were also evaluated, with one point given to the presence of the behavior during each 5-min interval. All signs were counted and compiled to yield a cumulative withdrawal score. Rats and mice were weighed before and after naloxone challenge to calculate weight loss. In all behavioral studies, experimenters were blind to the drug treatments and genetic profile of rats and mice.
(§2) All control animals received intrathecal saline.

For series [2], the target named is T1, Panx1 (Mus musculus, UniProt Q9JIP4).
T1 construct: endogenous in cells; host or cells: BV-2 microglia
T1 sequence (Q9JIP4 whole entry): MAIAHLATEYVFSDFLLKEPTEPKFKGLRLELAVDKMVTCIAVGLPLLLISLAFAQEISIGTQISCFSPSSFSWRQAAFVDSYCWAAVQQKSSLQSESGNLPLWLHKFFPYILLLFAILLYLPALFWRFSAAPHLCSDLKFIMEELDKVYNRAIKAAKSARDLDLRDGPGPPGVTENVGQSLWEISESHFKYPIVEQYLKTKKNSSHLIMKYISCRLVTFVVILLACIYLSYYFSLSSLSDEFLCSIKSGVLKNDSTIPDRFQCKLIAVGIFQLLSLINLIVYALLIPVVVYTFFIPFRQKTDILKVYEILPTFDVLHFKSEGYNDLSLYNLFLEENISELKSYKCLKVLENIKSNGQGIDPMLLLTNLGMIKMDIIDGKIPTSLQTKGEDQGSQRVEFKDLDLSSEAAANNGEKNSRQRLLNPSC
Format: cell-based. The note with it: for naloxone potentiation of Panx1 activation (YO-PRO-3 dye uptake): morphine-treated BV-2 microglial cultures, 30 minutes post-BzATP; for BzATP-evoked YO-PRO-1 uptake: morphine-treated microglia, BzATP 150 μM, drug 10 μM. Here is the method: (§3) BV2 microglia were maintained in DMEM media (Gibco) containing 10% FBS and 1% Pen-Strep at 37° C. with 5% CO2.
Following a 5-min baseline recording, cells were stimulated with BzATP (150 μM, Sigma) and dye-uptake was recorded for 30 minutes. Cell viability was assessed immediately after 30 minute recording by application of ionomycin (1 μM, Sigma). YO-PRO-1 dye fluorescent emission (491/509) or YO-PRO-3 dye fluorescent emission (612/631) was detected at 37° C. using a FilterMax F5 plate reader (Molecular Devices). Drugs used include ^10panx, ^scrpanx, and naloxone, all of which were used at 10 μM. Drugs were bath applied in YO-PRO-1 dye and incubated at 37° C. for 10 minutes prior to baseline recording. Fluorescent emission at 30 minutes post BzATP application was calculated as percent change from baseline. Representative images of BV-2 YO-PRO-1 dye uptake were taken at room temperature using an inverted microscope (Nikon Eclipse Ti C1S1 Spectral Confocal) with images take at 5 minute intervals for 30 minutes using EasyRatioPro software (PTI). To assess Panx1 function in Cx3cr1::Panx1^flx/flx adult microglia, neuron-glia mixture culture was isolated from adult mice treated with tamoxifen or vehicle for 5 days, then plated in DMEM containing 10% FBS and 1% Pen-Strep and incubated overnight at 37° C. with 5% CO2. Cells were washed and incubated with DAPI (1:10,000) for 10 minutes, and then incubated in YO-PRO-3 dye. Microglia were identified from mixed adult neuronal-glia culture by endogenous expression of eYFP. Fluorescence of individual eYFP positive microglia was recorded for a 5 minute baseline period and then for 30 minutes post BzATP stimulation (300 μM). Fluorescent emission at 30 minutes was calculated and as percent change from baseline.

Series [3] relates to morphine-dependent rats. Description: Naloxone-precipitated morphine withdrawal behaviours in rats. In kind it is in vivo, rat. The note with it: for morphine withdrawal: morphine-dependent rats. Here is the method: as §1, §2
Both mefloquine and probenecid were reconstituted in β-cyclodextrin (Sigma), and control animals received systemic β-cyclodextrin.

In series [4] the target is T1, Panx1. Format: cell-based. The note with it: for ATP release: morphine-treated cultured microglia stimulated with naloxone. The protocol: as §3
ATP level were detected using bioluminescence by combining samples with recombinant firefly luciferase and its substrate D-luciferin (ATP Determination Kit, Life Technologies). The ATPase inhibitor (ARL67156, 1 μM, Sigma) was added to the ECS or ACSF to decrease breakdown of ATP, and samples were incubated in medium for 30 minutes prior to naloxone stimulation to reduce mechanically-induced ATP release. Samples were stimulated with naloxone (10 μM) for 30 minutes, at which point the supernatant was collected. Samples were read immediately after collection using a FilterMax F5 plate reader at 28° C. For experiments for BV-2 microglial cultures, cells were incubated in ^10panx (10 μM), ^scrpanx (10 μM), probenecid (1 mM), mefloquine (40 μM) or ECS for 10 minutes prior to naloxone stimulation. Final ATP measurement was expressed relative to control samples (saline treated and ECS stimulated) from the same plate. For ATP release in spinal cord slices, tamoxifen or vehicle treated Cx3cr1::Panx1^flx/flx mice were perfused with ice-cold oxygenated sucrose-substituted ACSF, and the spinal cord isolated by hydraulic extrusion. The lumbar segment of the spinal cord was sliced into 300 μm sections, and incubated in oxygenated 37° C. ACSF for 1 hour. Spinal cord slices were then transferred to room temperature oxygenated ACSF and stimulated with naloxone. For quantification, ATP release was normalized to total protein of each sample.

The test system of series [5] is Panx1. The series is described as follows: Western blot of total Panx1 protein in BV-2 microglial cell line. In kind it is cell-based. The note with it: morphine for 5-days. Here is the method:
(§4) Rat spinal cord tissue was rapidly dissected and homogenized in RIPA buffer containing 20 mM TrisHCl (pH 7.5), 150 mM NaCl, and 0.5% Tween-20. Cultured microglia were harvested in 150 μL lysis buffer containing 50 mM TrisHCl, 150 mM NaCl, 10 mM EDTA, 0.1% Triton-X, and 5% Glycerol. Both RIPA and lysis buffers contained protease inhibitors (Sigma) and phosphatase inhibitors (GBiosciences). Total protein was measured using a BioRad RC DC Protein Assay Kit (BioRad) or Pierce BCA Protein Assay Kit (Thermo Scientific). Samples were heated at 95° C. for 5-min in loading buffer (350 mM Tris, 30% glycerol, 1.6% SDS, 1.2% bromophenol blue, 6% β-mercaptoethanol) then electrophoresed on a precast SDS gel (4-12% Tris-HCl, BioRad) and transferred onto a nitrocellulose membrane. […] Membranes were washed and incubated for 2 h at 20-25° C. in fluorophore-conjugated secondary antibodies (anti-rabbit and anti-mouse conjugated IR Dyes 1:5000, Mandel Scientific; or Fluorescent TrueBlot anti-rabbit IgG Dylight 1:1000, Rockland) then quantified by direct detection of secondary antibody fluorescence at 680 and 800 nm (LICOR Odyssey CLx). Band intensity was quantified using Image J, normalized to β-actin and expressed relative to control samples. […]
On the technique in general: In western blotting, separated proteins are transferred to a membrane and probed.

Series [6] deals with Panx1. Description: Western blot of total Panx1 protein in rat primary microglia cultures. Format: cell-based. The note with it: morphine for 5-days. The protocol:
as §4

Series [7] relates to CD11b-positive cells in the lumbar spinal cords. The note with it: mouse.
Protocol: Mice with microglial specific deletion of Panx1 were generated using a Cre-loxP system. […] Progeny genotype was screened using PCR, and homozygous Panx1^flx/flx and Cx3cr1-cre mice were bred and backcrossed for 8 generations to yield the conditional Cx3cr1::Panx1^flx/flx knock-out mice. To induce Cre recombination, mice were injected intraperitoneally with 1 mg per day tamoxifen (Sigma) for 5 days. Wild-type mice were littermate mice that received vehicle injections (sunflower oil with 10% ethanol) for 5 days, while tamoxifen-related effects were controlled for using Panx1^flx/flx littermate mice that received 5 days of tamoxifen injections.

Where two headings read alike, the source gives them in different places.

For the compound `CCN(CC)c1ncnc2c1ncn2[C@@H]1O[C@H](COP(=O)(O)OP(=O)(O)C(Br)(Br)P(=O)(O)O)[C@@H](O)[C@H]1O` [ARL67156], in series [1] (intrathecal 10 nmoles), the morphine withdrawal result is “exacerbated”.
`Nc1ncnc2c1ncn2[C@@H]1O[C@H](COP(=O)(O)OP(=O)(O)OP(O)(O)=S)[C@@H](O)[C@H]1O` [ATPγS]: the withdrawal behaviors result in series [1] (morphine-treated Panx1-deficient mice, intrathecal 100 μM together with naloxone challenge) was “restored a spectrum of withdrawal behaviors”; in series [1] (saline-treated Panx1-deficient mice, intrathecal 100 μM) it was “not observed”.
For the compound `OC(c1cc(C(F)(F)F)nc2c(C(F)(F)F)cccc12)C1CCCCN1` (stereo not shown) [mefloquine], in series [2], the “naloxone potentiation of Panx1 activation (YO-PRO-3 dye uptake)” value is recorded as “blocked”. Also, in series [3] (systemic 45 mg/kg i.p. 1-hour prior to naloxone challenge), the morphine withdrawal entry was “significantly ameliorated”. Further, the ATP release entry in series [4] (mefloquine 40 μM) is on record as “suppressed”.
In the case of `CN1CC[C@]23c4c5ccc(O)c4O[C@H]2[C@@H](O)C=C[C@H]3[C@H]1C5` [morphine], the “total Panx1 protein levels” value in series [5] and in series [6] was “marked increase” each time.
Regarding `C=CCN1CC[C@]23c4c5ccc(O)c4O[C@H]2C(=O)CC[C@@]3(O)[C@H]1C5` [naloxone], the “BzATP-evoked YO-PRO-1 uptake” value in series [2] was “further potentiated”. Moreover, the “ATP in microglial supernatant” value in series [4] (naloxone applied to microglia in culture (10 μM, 30 minutes)) is on record as “evoked the release of ATP”.
As to `CCCN(CCC)S(=O)(=O)c1ccc(C(=O)O)cc1` [probenecid], the “naloxone potentiation of Panx1 activation (YO-PRO-3 dye uptake)” value in series [2] is “blocked”. In addition, the morphine withdrawal entry in series [3] (systemic 50 mg/kg i.p. 1-hour prior to naloxone challenge) is given as “significantly ameliorated”. Also, the ATP release entry in series [4] (probenecid 1 mM) was “suppressed”.
For the compound `CC/C(=C(\c1ccccc1)c1ccc(OCCN(C)C)cc1)c1ccccc1` [tamoxifen], the “recombination in Cre^ER reporter eYFP / CD11b-positive cells” value in series [7] is reported as 95±3.1%. Moreover, the morphine withdrawal responses entry in series [1] (tamoxifen given to Panx1^loxp/loxp mice without inducible Cre-recombinase) is “does not affect morphine withdrawal”.
With FSVYWAQADR (scrPanx) [^scrpanx], the “BzATP-evoked YO-PRO-1 uptake” value in series [2] is recorded as “unaffected”.
As for WRQAAFVDSY (10panx) [^10panx], the naloxone-precipitated morphine withdrawal entry is “significantly attenuated” in series [1] (Panx1-expressing mice, intrathecal 10 μg before naloxone challenge) and “did not further reduce withdrawal” in series [1] (mice lacking microglial Panx1, intrathecal 10 μg). The “BzATP-evoked YO-PRO-1 uptake” value in series [2] was “blocked”. Further, the withdrawal behaviours result in series [3] (rats after 5-days of morphine, intrathecal 10 μg, 60-minutes prior to naloxone challenge) is given as “significantly attenuated”. Also, the “naloxone-evoked release of ATP” value in series [4] (cultured microglia, ^10panx 10 μM for 10 minutes prior to naloxone) is given as “blocked”.
As for apyrase, the morphine withdrawal entry in series [1] (intrathecal 10 units) is recorded as “striking reduction in withdrawal”.
